Measured values published in article PMC3961306, “Comparison of the Cancer Gene Targeting and Biochemical Selectivities of All Targeted Kinase Inhibitors Approved for Clinical Use” (PLoS ONE, 2014).

Experiments:
Assay in all cases: Kinase profiling in a biochemical assay panel (mobility shift assays and ELISA), %-inhibition at 1 μM; selectivity entropy
[1] = molecular target: panel of more than 300 wild-type and mutant kinases (313 kinase panel) (Homo sapiens, UniProt O14578)
[2] = molecular target: panel of more than 300 wild-type and mutant kinases (313 kinase panel) (Homo sapiens, UniProt Q9Y6M4)
panel of more than 300 wild-type and mutant kinases (313 kinase panel) (Homo sapiens, UniProt Q9Y6M4), sequence (Q9Y6M4 whole entry, change not shown): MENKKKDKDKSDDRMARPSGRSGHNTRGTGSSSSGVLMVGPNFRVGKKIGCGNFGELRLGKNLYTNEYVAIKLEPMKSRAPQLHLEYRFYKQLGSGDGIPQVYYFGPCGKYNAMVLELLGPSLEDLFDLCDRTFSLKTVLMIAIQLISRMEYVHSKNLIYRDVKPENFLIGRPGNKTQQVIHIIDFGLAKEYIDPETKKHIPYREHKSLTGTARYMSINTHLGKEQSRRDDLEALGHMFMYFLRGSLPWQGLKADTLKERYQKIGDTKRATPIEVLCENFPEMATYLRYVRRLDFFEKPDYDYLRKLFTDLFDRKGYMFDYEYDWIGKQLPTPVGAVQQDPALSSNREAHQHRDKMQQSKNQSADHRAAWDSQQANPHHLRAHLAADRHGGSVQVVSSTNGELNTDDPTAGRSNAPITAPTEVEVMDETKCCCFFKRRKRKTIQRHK

[3] = molecular target: T1, panel of more than 300 wild-type and mutant kinases (313 kinase panel) (Homo sapiens, UniProt O00141)
T1 sequence (O00141 1-431): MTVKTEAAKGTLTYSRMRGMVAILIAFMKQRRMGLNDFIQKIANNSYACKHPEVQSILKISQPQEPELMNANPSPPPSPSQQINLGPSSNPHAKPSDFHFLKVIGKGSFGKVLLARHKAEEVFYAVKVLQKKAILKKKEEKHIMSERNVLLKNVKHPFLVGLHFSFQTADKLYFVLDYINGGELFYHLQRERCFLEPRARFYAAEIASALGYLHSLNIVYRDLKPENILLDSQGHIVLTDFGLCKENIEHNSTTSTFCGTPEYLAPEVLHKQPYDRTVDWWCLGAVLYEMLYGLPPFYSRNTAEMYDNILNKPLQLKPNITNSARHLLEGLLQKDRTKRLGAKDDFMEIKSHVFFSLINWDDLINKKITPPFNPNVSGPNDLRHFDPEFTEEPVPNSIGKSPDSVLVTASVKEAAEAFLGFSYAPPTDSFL

[4] = molecular target: T2, panel of more than 300 wild-type and mutant kinases (313 kinase panel) (Homo sapiens, UniProt Q8TD19)
T2 sequence (Q8TD19 1-979): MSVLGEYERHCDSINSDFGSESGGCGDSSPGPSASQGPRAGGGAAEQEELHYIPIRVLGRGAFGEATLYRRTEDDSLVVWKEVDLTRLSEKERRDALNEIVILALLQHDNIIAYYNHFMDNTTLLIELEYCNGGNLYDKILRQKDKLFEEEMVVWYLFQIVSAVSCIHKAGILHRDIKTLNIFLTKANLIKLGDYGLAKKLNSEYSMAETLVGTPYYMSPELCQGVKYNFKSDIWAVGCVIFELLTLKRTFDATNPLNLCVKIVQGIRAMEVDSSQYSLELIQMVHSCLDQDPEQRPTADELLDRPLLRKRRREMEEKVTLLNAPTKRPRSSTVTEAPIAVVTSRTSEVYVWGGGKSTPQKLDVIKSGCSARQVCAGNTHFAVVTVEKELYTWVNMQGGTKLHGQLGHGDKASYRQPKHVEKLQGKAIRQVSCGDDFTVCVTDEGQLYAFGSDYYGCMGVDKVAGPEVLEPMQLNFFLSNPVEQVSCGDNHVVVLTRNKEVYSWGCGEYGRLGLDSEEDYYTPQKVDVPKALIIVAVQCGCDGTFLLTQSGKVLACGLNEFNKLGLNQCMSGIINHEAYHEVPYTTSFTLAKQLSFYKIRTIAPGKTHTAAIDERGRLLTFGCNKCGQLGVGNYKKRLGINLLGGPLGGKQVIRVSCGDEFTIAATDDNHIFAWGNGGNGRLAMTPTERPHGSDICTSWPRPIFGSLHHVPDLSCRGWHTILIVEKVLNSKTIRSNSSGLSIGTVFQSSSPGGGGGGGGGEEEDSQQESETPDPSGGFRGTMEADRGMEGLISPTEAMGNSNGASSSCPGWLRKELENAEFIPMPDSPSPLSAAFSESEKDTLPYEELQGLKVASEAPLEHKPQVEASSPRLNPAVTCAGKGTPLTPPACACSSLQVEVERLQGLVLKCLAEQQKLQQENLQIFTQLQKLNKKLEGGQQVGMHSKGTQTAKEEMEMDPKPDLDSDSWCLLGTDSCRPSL

[5] = molecular target: panel of more than 300 wild-type and mutant kinases (313 kinase panel) (Homo sapiens, UniProt P07949, S891A)
panel of more than 300 wild-type and mutant kinases (313 kinase panel) (Homo sapiens, UniProt P07949, S891A), sequence (P07949 29-1114 S891A): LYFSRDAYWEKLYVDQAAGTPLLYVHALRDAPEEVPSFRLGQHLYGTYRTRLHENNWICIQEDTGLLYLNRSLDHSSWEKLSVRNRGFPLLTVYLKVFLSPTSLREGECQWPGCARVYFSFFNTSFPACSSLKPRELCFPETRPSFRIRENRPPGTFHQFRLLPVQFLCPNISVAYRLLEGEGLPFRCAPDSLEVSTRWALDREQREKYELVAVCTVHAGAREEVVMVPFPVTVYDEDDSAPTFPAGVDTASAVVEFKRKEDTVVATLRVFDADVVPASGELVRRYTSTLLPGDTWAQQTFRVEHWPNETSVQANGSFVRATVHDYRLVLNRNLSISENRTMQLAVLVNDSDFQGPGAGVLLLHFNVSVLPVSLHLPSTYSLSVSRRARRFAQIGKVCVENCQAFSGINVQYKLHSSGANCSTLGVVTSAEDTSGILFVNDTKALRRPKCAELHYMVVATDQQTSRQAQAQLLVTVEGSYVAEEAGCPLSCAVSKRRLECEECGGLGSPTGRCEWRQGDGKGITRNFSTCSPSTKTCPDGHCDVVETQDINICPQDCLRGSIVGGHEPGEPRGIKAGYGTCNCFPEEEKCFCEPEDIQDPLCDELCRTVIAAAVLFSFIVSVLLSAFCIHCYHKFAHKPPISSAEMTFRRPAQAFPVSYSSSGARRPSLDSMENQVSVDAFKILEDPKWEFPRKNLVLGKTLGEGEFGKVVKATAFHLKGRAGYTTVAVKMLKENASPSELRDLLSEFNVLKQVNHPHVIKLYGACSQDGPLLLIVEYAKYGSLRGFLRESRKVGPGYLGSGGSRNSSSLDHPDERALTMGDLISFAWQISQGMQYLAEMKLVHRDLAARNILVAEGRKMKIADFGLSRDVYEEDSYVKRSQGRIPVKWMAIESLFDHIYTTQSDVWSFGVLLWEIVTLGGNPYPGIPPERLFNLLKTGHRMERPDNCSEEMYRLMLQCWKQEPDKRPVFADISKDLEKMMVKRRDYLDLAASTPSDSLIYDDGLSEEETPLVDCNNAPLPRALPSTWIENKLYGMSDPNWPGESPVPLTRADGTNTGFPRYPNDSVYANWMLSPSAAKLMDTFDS

[6] = molecular target: panel of more than 300 wild-type and mutant kinases (313 kinase panel) (Homo sapiens, UniProt Q9Y2H1)
panel of more than 300 wild-type and mutant kinases (313 kinase panel) (Homo sapiens, UniProt Q9Y2H1), sequence (Q9Y2H1 whole entry, change not shown): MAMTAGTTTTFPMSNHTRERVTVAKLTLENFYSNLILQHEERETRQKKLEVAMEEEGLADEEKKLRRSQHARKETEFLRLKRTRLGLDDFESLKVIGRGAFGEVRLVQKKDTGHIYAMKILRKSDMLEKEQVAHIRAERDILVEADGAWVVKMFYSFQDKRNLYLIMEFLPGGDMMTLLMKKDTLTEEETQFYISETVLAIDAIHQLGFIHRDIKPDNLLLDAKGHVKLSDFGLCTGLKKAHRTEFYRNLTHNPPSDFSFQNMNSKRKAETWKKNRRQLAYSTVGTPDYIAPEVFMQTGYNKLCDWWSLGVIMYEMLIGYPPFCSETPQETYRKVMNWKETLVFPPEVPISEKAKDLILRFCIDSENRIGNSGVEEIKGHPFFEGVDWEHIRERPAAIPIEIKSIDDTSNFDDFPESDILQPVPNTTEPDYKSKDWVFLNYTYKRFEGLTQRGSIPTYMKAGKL

[7] = molecular target: T3, panel of more than 300 wild-type and mutant kinases (313 kinase panel) (Homo sapiens, UniProt Q8IW41)
T3 sequence (Q8IW41 1-473): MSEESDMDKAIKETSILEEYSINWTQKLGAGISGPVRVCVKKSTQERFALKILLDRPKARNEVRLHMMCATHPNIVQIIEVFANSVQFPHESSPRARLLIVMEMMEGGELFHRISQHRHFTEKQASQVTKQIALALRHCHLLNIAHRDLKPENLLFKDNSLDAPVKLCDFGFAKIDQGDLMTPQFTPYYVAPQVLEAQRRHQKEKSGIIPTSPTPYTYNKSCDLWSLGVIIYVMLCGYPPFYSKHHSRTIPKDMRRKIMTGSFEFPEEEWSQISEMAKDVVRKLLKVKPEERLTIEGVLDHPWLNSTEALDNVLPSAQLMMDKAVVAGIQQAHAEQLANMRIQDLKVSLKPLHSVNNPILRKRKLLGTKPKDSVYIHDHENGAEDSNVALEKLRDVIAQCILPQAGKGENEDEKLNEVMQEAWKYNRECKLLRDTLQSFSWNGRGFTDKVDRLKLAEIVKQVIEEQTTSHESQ

[8] = kinase MAPKAPK5, compound at 1 μM

panel of more than 300 wild-type and mutant kinases (313 kinase panel) (Homo sapiens, UniProt O14578), sequence (O14578 whole entry, change not shown): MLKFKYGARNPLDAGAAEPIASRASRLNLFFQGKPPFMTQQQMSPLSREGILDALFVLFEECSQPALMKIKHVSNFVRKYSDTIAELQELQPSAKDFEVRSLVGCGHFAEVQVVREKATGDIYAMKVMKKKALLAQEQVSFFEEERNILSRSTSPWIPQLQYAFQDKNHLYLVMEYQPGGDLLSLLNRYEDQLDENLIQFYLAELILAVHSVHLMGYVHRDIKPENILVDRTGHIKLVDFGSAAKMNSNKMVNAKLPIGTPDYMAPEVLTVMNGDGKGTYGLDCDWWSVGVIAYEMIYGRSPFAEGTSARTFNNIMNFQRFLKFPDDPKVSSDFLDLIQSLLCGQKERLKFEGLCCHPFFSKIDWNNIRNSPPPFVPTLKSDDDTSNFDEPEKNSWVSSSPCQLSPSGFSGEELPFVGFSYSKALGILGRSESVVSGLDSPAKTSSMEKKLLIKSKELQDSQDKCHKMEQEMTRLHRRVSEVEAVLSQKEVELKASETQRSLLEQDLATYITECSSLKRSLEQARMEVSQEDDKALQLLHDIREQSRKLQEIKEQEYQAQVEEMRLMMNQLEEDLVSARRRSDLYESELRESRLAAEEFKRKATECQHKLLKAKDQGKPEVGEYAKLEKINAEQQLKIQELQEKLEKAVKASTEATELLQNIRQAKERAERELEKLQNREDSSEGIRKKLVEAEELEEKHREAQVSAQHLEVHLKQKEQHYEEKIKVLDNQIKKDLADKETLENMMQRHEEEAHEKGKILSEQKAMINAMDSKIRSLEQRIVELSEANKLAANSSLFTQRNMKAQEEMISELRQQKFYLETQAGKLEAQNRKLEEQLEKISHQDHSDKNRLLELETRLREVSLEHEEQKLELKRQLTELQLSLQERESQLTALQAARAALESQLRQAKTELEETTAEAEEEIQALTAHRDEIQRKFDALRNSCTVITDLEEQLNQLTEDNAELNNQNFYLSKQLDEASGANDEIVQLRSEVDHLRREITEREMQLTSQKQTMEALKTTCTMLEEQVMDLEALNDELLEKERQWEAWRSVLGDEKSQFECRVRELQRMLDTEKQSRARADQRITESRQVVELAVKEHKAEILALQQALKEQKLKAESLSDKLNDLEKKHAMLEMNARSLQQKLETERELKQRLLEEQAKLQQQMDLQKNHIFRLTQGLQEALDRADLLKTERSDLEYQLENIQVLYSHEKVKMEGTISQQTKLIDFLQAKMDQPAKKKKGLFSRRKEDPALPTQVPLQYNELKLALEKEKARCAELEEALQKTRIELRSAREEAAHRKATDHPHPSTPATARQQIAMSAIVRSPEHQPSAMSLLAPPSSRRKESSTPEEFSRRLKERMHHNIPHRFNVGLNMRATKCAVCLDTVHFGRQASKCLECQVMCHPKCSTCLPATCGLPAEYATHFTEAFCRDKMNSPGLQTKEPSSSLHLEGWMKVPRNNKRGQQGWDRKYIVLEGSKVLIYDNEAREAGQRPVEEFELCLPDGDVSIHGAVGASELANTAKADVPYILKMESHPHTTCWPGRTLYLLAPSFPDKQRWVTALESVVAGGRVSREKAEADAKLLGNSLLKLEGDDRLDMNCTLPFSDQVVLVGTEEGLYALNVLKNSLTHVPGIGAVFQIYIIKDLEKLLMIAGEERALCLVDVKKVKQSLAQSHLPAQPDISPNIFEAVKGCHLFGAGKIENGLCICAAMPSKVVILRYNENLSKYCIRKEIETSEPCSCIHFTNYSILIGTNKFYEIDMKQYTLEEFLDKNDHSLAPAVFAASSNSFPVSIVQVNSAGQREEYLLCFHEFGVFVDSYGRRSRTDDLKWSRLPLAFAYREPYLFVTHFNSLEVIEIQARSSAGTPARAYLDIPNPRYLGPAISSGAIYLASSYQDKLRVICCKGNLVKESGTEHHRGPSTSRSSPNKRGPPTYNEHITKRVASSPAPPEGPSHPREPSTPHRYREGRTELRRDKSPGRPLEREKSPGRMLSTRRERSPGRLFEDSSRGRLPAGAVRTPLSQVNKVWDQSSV

Row | Compound | %-inhibition of CRIK ([1]; kinase CRIK, compound at 1 μM) | %-inhibition, CK1γ3 ([2]; kinase CK1γ3, 1 μM compound) | %-inhibition of SGK ([3]; kinase SGK, 1 μM) | %-inhibition of NEK9 ([4]; kinase NEK9, 1 μM) | %-inhibition of RET(S891A) ([5]; kinase RET(S891A), 1 μM) | %-inhibition of NDR2 ([6]; kinase NDR2, 1 μM) | %-inhibition of MAPKAPK5 [7, 8] | %-inhibition of NEK9 ([4]; 1 µM) | %-inhibition of CRIK ([1]; 1 µM) | %-inhibition of NDR2 ([6]; 1 µM) | %-inhibition of MAPKAPK5 ([7]; 1 µM) | %-inhibition, CK1γ3 ([2]; 1 µM) | %-inhibition of SGK ([3]; 1 µM) | %-inhibition of RET(S891A) ([5]; 1 µM)
1 | Cc1ccc(C(=O)Nc2ccc(CN3CCN(C)CC3)c(C(F)(F)F)c2)cc1C#Cc1cnc2cccnn12 [ponatinib] | 61% | 4.6% | 7.57% | 17% | 102% |  |  |  |  |  |  |  |  | 
2 | CC(C)(C)c1nc(-c2cccc(NS(=O)(=O)c3c(F)cccc3F)c2F)c(-c2ccnc(N)n2)s1 [dabrafenib] | -2.74% |  | 4% | 101% | 53% | -2% |  |  |  |  |  |  |  | 
3 | COc1cc(Nc2c(C#N)cnc3cc(OCCCN4CCN(C)CC4)c(OC)cc23)c(Cl)cc1Cl [bosutinib] | 73% | 3.3% | -5% |  | 90% |  | 0% | -4.25% |  |  |  |  |  | 
4 | Cc1nc(Nc2ncc(C(=O)Nc3c(C)cccc3Cl)s2)cc(N2CCN(CCO)CC2)n1 [dasatinib] | 10% |  | 6% |  |  | -6% |  |  |  |  |  |  |  | 
5 | CO[C@H]1C[C@@H]2CC[C@@H](C)[C@@](O)(O2)C(=O)C(=O)N2CCCC[C@H]2C(=O)O[C@H]([C@H](C)C[C@@H]2CC[C@@H](OC(=O)C(C)(CO)CO)[C@H](OC)C2)CC(=O)[C@H](C)/C=C(\C)[C@@H](O)[C@@H](OC)C(=O)[C@H](C)C[C@H](C)/C=C/C=C/C=C/1C [temsirolimus] | -15% | -1% | -3.17% | -8% | -2.19% | -3.63% | -9% |  |  |  |  |  |  | 
6 | C#Cc1cccc(Nc2ncnc3cc(OCCOC)c(OCCOC)cc23)c1 [erlotinib] |  |  |  |  |  |  |  | 7% | 21% | -6% | 1.53% | -0.719% | 6% | 93%
7 | CCCS(=O)(=O)Nc1ccc(F)c(C(=O)c2c[nH]c3ncc(-c4ccc(Cl)cc4)cc23)c1F [vemurafenib] | -6% | 2.14% | -0.122% | -2.2% | 60% | -2.51% | 12% |  |  |  |  |  |  | 
8 | N#CC[C@H](C1CCCC1)n1cc(-c2ncnc3[nH]ccc23)cn1 [ruxolitinib] | 8% | 4.6% | -2.44% | 8% |  | 89% |  |  |  |  | -4.52% |  |  | 
9 | CC(=O)Nc1cccc(-n2c(=O)n(C3CC3)c(=O)c3c(Nc4ccc(I)cc4F)n(C)c(=O)c(C)c32)c1 [trametinib] | -4.25% |  | 0.217% | -3% | -1.24% | -1.48% | -2.22% |  |  |  |  |  |  | 
10 | COc1cc2c(Nc3ccc(Br)cc3F)ncnc2cc1OCC1CCN(C)CC1 [vandetanib] | -2.19% | 2.66% | -4.51% | -7% |  | -9% | -0.931% |  |  |  |  |  |  | 
11 | CS(=O)(=O)CCNCc1ccc(-c2ccc3ncnc(Nc4ccc(OCc5cccc(F)c5)c(Cl)c4)c3c2)o1 [lapatinib] | 7% |  | 2.49% |  |  | -6% | -2.68% |  |  |  |  | -0.863% |  | 0.932%
12 | CO[C@H]1C[C@@H]2CC[C@@H](C)[C@@](O)(O2)C(=O)C(=O)N2CCCC[C@H]2C(=O)O[C@H]([C@H](C)C[C@@H]2CC[C@@H](OCCO)[C@H](OC)C2)CC(=O)[C@H](C)/C=C(\C)[C@@H](O)[C@@H](OC)C(=O)[C@H](C)C[C@H](C)/C=C/C=C/C=C/1C [everolimus] | -14% | -13% | -6.59% | -11% | -3% | -8% | -9% |  |  |  |  |  |  | 
13 | CCN(CC)CCNC(=O)c1c(C)[nH]c(/C=C2\C(=O)Nc3ccc(F)cc32)c1C [sunitinib] |  |  | 60% |  |  |  |  |  |  |  |  |  |  | 
14 | CNC(=O)c1cc(Oc2ccc(NC(=O)Nc3ccc(Cl)c(C(F)(F)F)c3)c(F)c2)ccn1 [regorafenib] | -18% | -2.14% | -5.37% | 2.52% |  | -8.54% | -9% |  |  |  |  |  |  | 102%
15 | O=S(=O)(c1cccc2cnccc12)N1CCCNCC1 [fasudil] | 7% | -4% | 2.82% | -3% | -1.38% | 25% | -1.65% |  |  |  |  |  |  | 
16 | C[C@@H](Oc1cc(-c2cnn(C3CCNCC3)c2)cnc1N)c1c(Cl)ccc(F)c1Cl [crizotinib] | -12% | 4% | 1.46% | 57% |  | -4.76% | -3.19% |  |  |  |  |  |  | 
17 | Cc1cn(-c2cc(NC(=O)c3ccc(C)c(Nc4nccc(-c5cccnc5)n4)c3)cc(C(F)(F)F)c2)cn1 [nilotinib] | -16% |  | 9% | -21% |  | -14% | -4.26% |  |  |  |  | -10% |  | 81%
18 | COc1cc2nccc(Oc3ccc(NC(=O)C4(C(=O)Nc5ccc(F)cc5)CC4)cc3)c2cc1OC [cabozantinib] | -10% | 5% | -2% | 1.26% |  | -6% | -5% |  |  |  |  |  |  | 
